# Values quoted from earlier work as cited in patent publication US7569547B2, “Inhibiting furin with polybasic peptides” (Board of Supervisors of Louisiana State University and …, priority 2001, dated 2009).
# No end group written: not given here.
# Assays:
# [1] = target: T1, furin (Homo sapiens, UniProt P09958); settings: Lu et al. 1993; cited from earlier work
# [2] = target: T1, furin; settings: literature; read-out: Ki against furin; cited from earlier work
# [3] = target: T2, PC7 (Homo sapiens, UniProt Q16549); settings: Zhong et al. 1999; read-out: Ki against PC7; cited from earlier work
# T2 sequence (Q16549 142-785): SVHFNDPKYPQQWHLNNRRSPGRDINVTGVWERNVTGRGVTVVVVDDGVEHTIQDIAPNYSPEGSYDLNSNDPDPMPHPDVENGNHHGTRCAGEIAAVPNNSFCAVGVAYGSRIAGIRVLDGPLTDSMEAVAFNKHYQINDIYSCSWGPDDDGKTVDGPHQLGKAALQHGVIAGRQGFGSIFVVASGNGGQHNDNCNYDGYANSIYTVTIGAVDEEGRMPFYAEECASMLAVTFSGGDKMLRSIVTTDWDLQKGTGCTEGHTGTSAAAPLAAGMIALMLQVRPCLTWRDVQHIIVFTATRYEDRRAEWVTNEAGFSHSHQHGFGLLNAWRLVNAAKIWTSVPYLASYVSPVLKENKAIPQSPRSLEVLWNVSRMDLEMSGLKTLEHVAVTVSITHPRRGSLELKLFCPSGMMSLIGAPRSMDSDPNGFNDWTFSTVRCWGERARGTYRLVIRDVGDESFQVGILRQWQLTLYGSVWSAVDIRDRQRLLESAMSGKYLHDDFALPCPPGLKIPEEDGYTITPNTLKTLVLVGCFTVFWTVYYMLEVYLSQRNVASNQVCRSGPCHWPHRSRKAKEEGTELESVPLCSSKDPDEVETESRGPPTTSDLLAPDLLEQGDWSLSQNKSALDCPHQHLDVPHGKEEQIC
# T1 sequence (P09958 108-794): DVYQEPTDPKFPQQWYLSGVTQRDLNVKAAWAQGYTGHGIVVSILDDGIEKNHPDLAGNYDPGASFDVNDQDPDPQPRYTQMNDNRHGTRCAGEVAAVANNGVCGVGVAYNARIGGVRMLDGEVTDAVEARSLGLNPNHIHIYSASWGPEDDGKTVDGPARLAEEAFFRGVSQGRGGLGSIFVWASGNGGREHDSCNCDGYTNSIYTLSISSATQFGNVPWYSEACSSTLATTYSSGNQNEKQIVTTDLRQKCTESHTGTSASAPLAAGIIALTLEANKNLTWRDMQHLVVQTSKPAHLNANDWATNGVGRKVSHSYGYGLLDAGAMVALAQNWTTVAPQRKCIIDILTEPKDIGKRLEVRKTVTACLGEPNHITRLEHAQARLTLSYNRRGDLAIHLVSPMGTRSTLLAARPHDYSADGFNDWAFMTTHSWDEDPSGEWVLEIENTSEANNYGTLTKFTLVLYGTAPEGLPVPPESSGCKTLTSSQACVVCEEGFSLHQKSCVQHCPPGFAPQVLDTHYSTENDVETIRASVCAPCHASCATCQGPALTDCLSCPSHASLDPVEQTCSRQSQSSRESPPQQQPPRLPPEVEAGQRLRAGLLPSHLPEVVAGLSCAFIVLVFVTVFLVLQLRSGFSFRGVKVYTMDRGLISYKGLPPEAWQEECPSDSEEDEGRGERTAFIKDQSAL
substance,measurement,setting,value
Arg^15-Lys^17-Arg^18 turkey ovomucoid third domain: third domain of turkey ovomucoid engineered (KPACTLE^19→KPRCKRE^19) to increase specificity towards furin (not fully specified; ends and bridges not checked),equilibrium constant,[1],1.1e+07 M⁻¹
EQRLLKRAKR,Ki,[2],0.08 µM
same,Ki,[3],0.006 µM
QQVAKRRTKR,Ki,[3],~0.5 µM
